# Laboratory results reported in patent US12582689B2, “Use of terpenoids in the treatment or prevention of fibrotic diseases” (ARJIL BIOTECH HOLDING COMPANY LIMITED, priority 2020, dated 2026).
# Tests used:
# Assay type in all cases: in vivo
# [1] = system: TNF-α, IL-1β, IL-6 and TGF-β; assay: Bleomycin-induced pulmonary fibrosis in mice: pro-inflammatory cytokines by ELISA; settings: extract 1.0 g/kg, BH and DH (50 mg/kg), p<0.001, FIG. 35
# Method: Mice were divided into fifth groups with 5 animals per group according to body weight: control group, BLM group, BLM+DEX group (7.5 mg/kg), BLM+ACH dosage group (50 mg/kg), and BLM+ACM dosage group ([…]), BLM+ACH dosage group (50 mg/kg), and BLM+ACM dosage group (25 mg/kg) BLM+AH dosage group (50 mg/kg), and BLM+AM dosage group (25 mg/kg) BLM+BH dosage group (50 mg/kg), and BLM+BM dosage group (25 mg/kg) BLM+CH dosage group (50 mg/kg), and BLM+CM dosage group (25 mg/kg) BLM+DH dosage group (50 mg/kg), and BLM+DM dosage group (25 mg/kg) BLM+EH dosage group (50 mg/kg), and BLM+EM dosage group (25 mg/kg) BLM. Pulmonary fibrosis (PF) was established in mice via a single intratracheal administration of BLM at 7.5 mg/kg mg/kg body weight. Different doses of samples were intragastrically administered daily for 21 days after BLM injury, and DEX was used as the positive control. Control and model groups received an equal volume of vehicle (0.9% NaCl) using the same schedule and route of administration. […]
# The serum concentration of the pro-inflammatory cytokines (i.e. tumor necrosis factor-α (TNF-α), interleukin-6 (IL-6), and IL-1β) in serum were assessed with relevant enzyme-linked immunosorbent assay (ELISA) kits (Biosource International Inc., Sunnyvale, CA, USA), based on the manufacturer's instructions. […]
# [2] = system: bleomycin-induced pulmonary fibrosis in mice; assay: Bleomycin-induced pulmonary fibrosis in mice: body and lung weight, lung index, histopathology, hydroxyproline; settings: BLM mice; for Pulmonary index [(lung weight/body weight)×100]: BLM group 1.60 ± 0.02; for hydroxyproline (HP) content in lung tissue: extract 1.0 g/kg, compound high-dose groups (50 mg/kg), p<0.001, FIG. 34
# Method: (§1) Specific pathogen-free ICR mice (males) (body weights 18-22 g) were purchased from the BioLASCO Taiwan Co., Ltd. (Taipei, Taiwan). The animals were housed in Plexiglas cages at a constant temperature of 22±1° C. and a relative humidity of 55±5% on a 12 h dark-light cycle for at least 2 weeks before the experiment. Animals were provided food and water ad libitum. All experimental procedures were performed according to the guidelines of the Institutional Animal Ethics Committee, and the protocol was approved by the Committee for the Purpose of Control and Supervision of Experiments on Animals.
# Pulmonary fibrosis (PF) was established in mice via a single intratracheal administration of BLM at 7.5 mg/kg mg/kg body weight. Different doses of samples were intragastrically administered daily for 21 days after BLM injury, and DEX was used as the positive control. Control and model groups received an equal volume of vehicle (0.9% NaCl) using the same schedule and route of administration.
# Mouse body weights were recorded daily. Mice were sacrificed on the 21th day using excess chloral hydrate hydrochloride anesthesia. Blood was obtained for ELISA analyses, and whole lungs were removed and weighed. […] The pulmonary coefficient was calculated using the following equation: lung weight/body weight×100%
# lung MPO activity = assay: Bleomycin-induced pulmonary fibrosis in mice: lung myeloperoxidase (MPO) assay; settings: BLM mice; compared with BLM group, p<0.001; FIG. 36
# Method: Mice were divided into fifth groups with 5 animals per group according to body weight: control group, BLM group, BLM+DEX group (7.5 mg/kg), BLM+ACH dosage group (50 mg/kg), and BLM+ACM dosage group (2.5 mg/kg), BLM+ACH dosage group (50 mg/kg), and BLM+ACM dosage group (25 mg/kg) BLM+AH dosage group (50 mg/kg), and BLM+AM dosage group (25 mg/kg) BLM+BH dosage group (50 mg/kg), and BLM+BM dosage group (25 mg/kg) BLM+CH dosage group (50 mg/kg), and BLM+CM dosage group (25 mg/kg) BLM+DH dosage group (50 mg/kg), and BLM+DM dosage group (25 mg/kg) BLM+EH dosage group (50 mg/kg), and BLM+EM dosage group (25 mg/kg) BLM. Pulmonary fibrosis (PF) was established in mice via a single intratracheal administration of BLM at 7.5 mg/kg mg/kg body weight. Different doses of samples were intragastrically administered daily for 21 days after BLM injury, and DEX was used as the positive control. Control and model groups received an equal volume of vehicle (0.9% NaCl) using the same schedule and route of administration.
# The pulmonary MPO activity was a reliable index for estimating the infiltration of inflammatory cells in lungs. The lung tissues were homogenized and the MPO levels were detected with the kits according to manufacturer's instruction.
# [3] = system: cisplatin-induced renal injury in C57BL/6 mice; assay: Mice model of cisplatin-induced renal injury: serum CRE/BUN and kidney histopathology; settings: for renal protection: normalization of serum CRE and BUN: cisplatin-treated mice, extracts at 1000 mg/kg, compound doses not given, p<0.001 vs cisplatin group
# Method: Determination of biochemical parameters Serum creatinine and serum urea are assessed using colorimetric kits according to manufacturer's instructions. Kits of the former markers are purchased from (HUMAN Diagnostics Worldwide, Magdeburg, Germany) with a chemical analyzer (Roche Diagnostics, Cobas Mira Plus, Rotkreuz, Switzerland).
# Kidney histopathology The anterior portion of the […] from each mouse is fixed in 10% formaldehyde phosphate butler, embedded in paraffin, cut into 5 μm sections, and then treated with an hematoxylin and eosin (H&E) stain for histological examination under the light microscopy (Nikon, ECLIPSE, TS100, Tokyo, Japan). Images are captured with a digital camera (NIS-Elements D 2.30, SP4, Build 387) at an original magnification of 400×.
# as §1, with “Seven-to-eight-week-old male C57BL/6” for “Specific pathogen-free ICR”, “are obtained” for “(males) (body weights 18-22 g) were purchased”, “Ltd,” for “Ltd.”, “are” for “were”, “institutional” for “Institutional”, “is” for “was”
# (§2) Renal fibrosis is induced via multiple injections of low-dose cisplatin. Intraperitoneal injections of cisplatin (5 mg/kg/injection; P4394, Sigma-Aldrich, St Louis, MO) are performed at 0, 1, and 3 weeks, for a total of 3 injections. Mice are sacrificed at 6 weeks after the first dose of cisplatin (n=6). To analyze the effects of samples, mice are given daily intraperitoneal injections for 7 days, starting from 4 weeks after first dose of cisplatin, and sacrificed at 4 weeks (n=6).
# [4] = system: TNF-α, IL-1β, IL-6 and TGF-β levels in serum; assay: Cisplatin-induced renal injury mice: serum pro-inflammatory cytokines by ELISA; settings: cisplatin-treated mice, extract at 1000 mg/kg, FIG. 4
# Method: TNF-α, IL-6, and IL-1β cytokines in serum The serum concentration of the pro-inflammatory cytokines (i.e. tumor necrosis factor-α (TNF-α), interleukin-6 ([…]), and IL-1β) in serum are assessed with relevant enzyme-linked immunosorbent assay ([…]) kits (Biosource International Inc., Sunnyvale, CA, USA), based on the manufacturer's instructions.
# as §1, with “Seven-to-eight-week-old male C57BL/6” for “Specific pathogen-free ICR”, “are obtained” for “(males) (body weights 18-22 g) were purchased”, “Ltd,” for “Ltd.”, “are” for “were”, “institutional” for “Institutional”, “is” for “was”
# as §2, with “weeks (n=6). […]” for “weeks (n=6).”
# [5] = system: CCl4-induced chronic liver fibrosis in SD rats; assay: CCl4-induced chronic liver fibrosis in rat
# Method: Blood samples are collected at week 0, 2, 4, 6, and 8. The animals are sacrificed at the end of the 8-week for histopathological examinations. FIGS. 7A, 7B, 7C depict delta weight, liver weight, and liver/body-weight ratio, respectively.
# The level of clinical biochemistry such as aspartate aminotransferase (AST), alanine aminotransferase (ALT), is evaluated to determine the enzymatic activities of the livers of the control groups and the experimental groups (shown in FIGS. 8A-8C).
Compound,"TNF-α, IL-1β, IL-6 and TGF-β production after BLM challenge [1]",hydroxyproline (HP) content in lung tissue [2],lung MPO activity (lung MPO activity),renal protection: normalization of serum CRE and BUN [3],further results
Dehydrosulphurenic acid/Sulphurenic acid [AR101-DS2],"improved TNF-α, IL-1β, IL-6 and TGF-β production",reduced lung HP,evidently suppressed the MPO activities,–,"Pulmonary index [(lung weight/body weight)×100] ([2]; 25 mg/kg daily for 21 days): 1.26 ± 0.03; Pulmonary index [(lung weight/body weight)×100] ([2]; 50 mg/kg daily for 21 days, 50 mg/kg): 1.01 ± 0.02; Pulmonary index [(lung weight/body weight)×100] ([2]; 50 mg/kg daily for 21 days, listed as BH, 50 mg/kg): significant decrease"
"C=C(CC[C@@H](C)[C@H]1CC[C@H]2C3=C(C(=O)C[C@]12C)[C@@]1(C)CC[C@@H](O)[C@](C)(O)[C@@H]1C[C@@H]3O)[C@@H](C)C(=O)O (racemic) [AR101-DS1, RS-Antcin K]",–,–,evidently suppressed the MPO activities,–,–
"C=C(CC[C@@H](C(=O)O)[C@H]1CC[C@@]2(C)C3=CC[C@H]4C(C)(C)[C@@H](O)CC[C@]4(C)C3=CC[C@]12C)C(C)C [AR101-DS4, Dehydroeburicoic Acid]",–,–,–,significant renal protection effect,–
"C=C1C(=O)O[C@H]2/C=C(\C)CC3C=C(CC/C=C(\C)CC[C@H]12)C(=O)O3 (stereo partly shown) [AR100-DS1, Ovatodiolide]","improved TNF-α, IL-1β, IL-6 and TGF-β production",reduced lung HP,evidently suppressed the MPO activities,significant renal protection effect,"kidney histopathology (H&E): necrosis and inflammatory infiltrating cells ([3]; cisplatin-stimulated mice, extract at 1000 mg/kg, FIG. 3): significantly improved necrosis and inflammatory infiltrating cells; serum NO, TNF-α, IL-1β and IL-6 production after cisplatin challenge [4]: improved NO, TNF-α, IL-1β, and IL-6 production; liver weight ([5]; 50 mg/kg, SD rats, 8 weeks CCl4, compared to Vehicle and Naïve group): significantly larger; liver appearance ([5]; 50 mg/kg, after 8 weeks of CCl4 induction): smooth surface without atrophy and sclerosis; serum AST and ALT level ([5]; 50 mg/kg, at W6 and W8, compared with the vehicle group): less AST and ALT increases; CCl4-induced liver injury, overall ([5]; SD rats, 8 weeks CCl4): potential to partially repair CCl4-induced liver injury"
"C=C(CC[C@@H](C)[C@H]1CC[C@H]2C3=C(C(=O)C[C@]12C)[C@@]1(C)CC[C@@H](O)[C@](C)(O)[C@@H]1C[C@@H]3O)[C@@H](C)C(=O)O (stereo in doubt) [AR101-DS1, RS-Antcin K]",–,reduced lung HP,–,–,–
